Earlier results, collected in patent US7799817B2, “Compositions and methods for sleep regulation” (LifeScape BioSciences Inc, priority 2004, dated 2010).
Where two headings read alike, the source gives them in different places.

Key:
jet lag [1] = system: jet lag
[2] = adult human
jet lag [3] = settings: for mean global jet lag score: 0=no jet lag, 100=extreme jet lag

COc1ccc2[nH]cc(CCNC(C)=O)c2c1 [melatonin, N-acetyl-5-methoxytryptamine]
effectiveness of lower dose for symptoms of jet lag unrelated to sleep (jet lag [1]; 0.5 mg fast release versus 5 mg): almost as effective as the higher dose
effect of higher dose on sleep quality and sleep latency (jet lag [1]; 5 mg versus 0.5 mg fast release): greater effect on sleep quality and sleep latency than the lower dose
effectiveness of slow release form (jet lag [1]; slow release 2 mg versus 5 mg or 0.5 mg fast release): less effective than either 5 mg or 0.5 mg (fast release)
half-life [2]: approximately 45 minutes
mean global jet lag score (jet lag [3]; eastward flights, four trials combined, placebo 51): 31
jet lag after melatonin administration (jet lag [3]; eight of ten randomized, placebo-controlled trials): less jet lag
mean global jet lag score (jet lag [3]; westward flights, two RCTs, placebo 41): 22
